Source: patent US9221832B2, “Heterocyclic amide derivatives as P2X7 receptor antagonists” (ACTELION PHARMACEUTICALS LTD., priority 2011, dated 2015)

Target: human recombinant P2X7 receptor (Homo sapiens (Human), UniProt Q99572)
Assay: YO-PRO assay: P2X7 receptor antagonistic activity
Format: cell-based
Details: HEK cells expressing human P2X7
Protocol: The P2X7 receptor antagonistic activity of the compounds of formula (I) is determined in accordance with the following experimental method.
Cell Line Generation and YO-PRO Assay
Cell line generation was performed in general according to established molecular cloning protocols. Specifically, RNA was extracted from human whole blood using the Qiagen RNeasy kit (Qiagen, CH) according to the manufacturer's instructions. Subsequently cDNA was made (Superscript II, Invitrogen AG, CH) and the human P2X7 gene (genbank ref. BC011913) was amplified with the following primers: […] and […]. The amplified sequence was subsequently ligated into a pcDNA3.1 (+) NotI, NheI digested plasmid. […] Following a 24 h exposure to DNA, cells were trypsinized and re-seeded at low density in the presence of 250 μg Geneticin. Geneticin resistant cells were then selected during two consecutive rounds of cloning by serial limiting dilution with visual inspection. Individual clones were screened for P2X7 expression by applying ATP and recording the resultant uptake of YO-PRO1. Specific cell clones were chosen based on RNA and protein expression. HEK cells stably expressing P2X7 were used to screen drugs using the YO-PRO1 assay. Cells were grown to confluency in adherent culture at 37° C. in a humidified 5% CO2 incubator (split 1/5 every 3-4 days with DMEM, 10% FCS, 1% Penicillin/Streptomycin, 250 μg/ml Geneticin). Adherent cells were detached by incubation with Trypsine (1 ml per 165 cm^2 dish) for 2 minutes, then washed off with 10 ml PBS (without Mg^2+ and Ca^2+), and resuspended in DMEM, 10% FCS, 1% Penicillin/Streptomycin, no Geneticin. […] During this time period, four time points were taken. Each time point comprised the average of several measurements made within a few seconds. […] The FLIPR tetra was equipped with Molecular Devices Screen Works system control software to define and run experimental protocols. […] For IC50 measurements the maximum intensity is plotted against the concentration of compound to determine IC50 values.

Sequence of human recombinant P2X7 receptor (Q99572 whole entry): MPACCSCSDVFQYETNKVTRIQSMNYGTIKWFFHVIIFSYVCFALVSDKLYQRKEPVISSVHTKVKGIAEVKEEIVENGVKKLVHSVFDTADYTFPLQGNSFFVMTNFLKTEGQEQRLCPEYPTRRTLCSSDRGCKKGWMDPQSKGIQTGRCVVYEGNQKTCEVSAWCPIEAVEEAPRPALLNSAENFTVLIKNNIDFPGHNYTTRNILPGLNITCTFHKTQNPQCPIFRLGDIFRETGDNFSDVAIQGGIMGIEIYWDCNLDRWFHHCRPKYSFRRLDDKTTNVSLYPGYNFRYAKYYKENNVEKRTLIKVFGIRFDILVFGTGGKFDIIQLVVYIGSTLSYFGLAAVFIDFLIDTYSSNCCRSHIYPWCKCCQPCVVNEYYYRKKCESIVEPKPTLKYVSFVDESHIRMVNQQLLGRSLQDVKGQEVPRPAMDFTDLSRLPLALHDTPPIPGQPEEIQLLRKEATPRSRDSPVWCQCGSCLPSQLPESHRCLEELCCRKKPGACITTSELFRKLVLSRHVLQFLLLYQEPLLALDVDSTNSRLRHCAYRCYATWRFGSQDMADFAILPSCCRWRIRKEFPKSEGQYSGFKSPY

IC50 [nM]	Compound
641	Cc1ccc(F)c(CC(=O)NC2COc3ncccc32)c1Cl (racemic) [Example 42, rac-2-(2-Chloro-6-fluoro-3-methyl-phenyl)-N-(2,3-dihydro-furo[2,3-b]pyridin-3-yl)-acetamide]
8050	O=C(Cc1cc(Cl)ccc1C(F)(F)F)NC1COc2ncccc21 (racemic) [Example 43, rac-2-(5-Chloro-2-trifluoromethyl-phenyl)-N-(2,3-dihydro-furo[2,3-b]pyridin-3-yl)-acetamide]
2000	O=C(Cc1ccccc1Cl)NC1CCOc2ncccc21 (racemic) [Example 44, rac-2-(2-Chloro-phenyl)-N-(3,4-dihydro-2H-pyrano[2,3-b]pyridin-4-yl)-acetamide]
> 6460	N#Cc1ccc(CC(=O)NC2CCOc3ncccc32)cc1 (racemic) [Example 45, rac-2-(4-Cyano-phenyl)-N-(3,4-dihydro-2H-pyrano[2,3-b]pyridin-4-yl)-acetamide]
1350	O=C(Cc1ccc(C(F)(F)F)cc1)NC1CCOc2ncccc21 (racemic) [Example 46, rac-N-(3,4-Dihydro-2H-pyrano[2,3-b]pyridin-4-yl)-2-(4-trifluoromethyl-phenyl)-acetamide]
3300	O=C(Cc1ccc(Oc2ccccc2)cc1)NC1CCOc2ncccc21 (racemic) [Example 48, rac-N-(3,4-Dihydro-2H-pyrano[2,3-b]pyridin-4-yl)-2-(4-phenoxy-phenyl)-acetamide]
17	O=C(Cc1cccc(C(F)(F)F)c1Cl)NC1CCOc2ncccc21 (racemic) [Example 49, rac-2-(2-Chloro-3-trifluoromethyl-phenyl)-N-(3,4-dihydro-2H-pyrano[2,3-b]pyridin-4-yl)-acetamide]
2630	O=C(Cc1c(F)cccc1Cl)NC1CCOc2ncccc21 (racemic) [Example 50, rac-2-(2-Chloro-6-fluoro-phenyl)-N-(3,4-dihydro-2H-pyrano[2,3-b]pyridin-4-yl)-acetamide]
1690	O=C(Cc1ccc(F)cc1F)NC1CCOc2ncccc21 (racemic) [Example 51, rac-2-(2,4-Difluoro-phenyl)-N-(3,4-dihydro-2H-pyrano[2,3-b]pyridin-4-yl)-acetamide]
1870	O=C(Cc1ccc(F)cc1C(F)(F)F)NC1CCOc2ncccc21 (racemic) [Example 52, rac-N-(3,4-Dihydro-2H-pyrano[2,3-b]pyridin-4-yl)-2-(4-fluoro-2-trifluoromethyl-phenyl)-acetamide]
67	O=C(Cc1cccc(Cl)c1Cl)NC1CCOc2ncccc21 (racemic) [Example 54, rac-2-(2,3-Dichloro-phenyl)-N-(3,4-dihydro-2H-pyrano[2,3-b]pyridin-4-yl)-acetamide]
1470	O=C(Cc1cc(F)c(Cl)cc1Cl)NC1CCOc2ncccc21 (racemic) [Example 57, rac-2-(2,4-Dichloro-5-fluoro-phenyl)-N-(3,4-dihydro-2H-pyrano[2,3-b]pyridin-4-yl)-acetamide]

Further lines, the compound ahead of its results:

Compound	IC50 [nM]
Cc1cc(Cl)cc(Cl)c1CC(=O)NC1COc2ncccc21 (racemic) [Example 5, rac-2-(2,4-Dichloro-6-methyl-phenyl)-N-(2,3-dihydro-furo[2,3-b]pyridin-3-yl)-acetamide]	12
Cc1cc(Cl)cc(Cl)c1CC(=O)NC1CCOc2ncccc21 (racemic) [Example 8, rac-2-(2,4-Dichloro-6-methyl-phenyl)-N-(3,4-dihydro-2H-pyrano[2,3-b]pyridin-4-yl)-acetamide]	43
N#Cc1ccccc1CC(=O)NC1COc2ncccc21 (racemic) [Example 10, rac-2-(2-Cyano-phenyl)-N-(2,3-dihydro-furo[2,3-b]pyridin-3-yl)-acetamide]	2980
Cc1ccccc1CC(=O)NC1COc2ncccc21 (racemic) [Example 11, rac-N-(2,3-Dihydro-furo[2,3-b]pyridin-3-yl)-2-o-tolyl-acetamide]	1310
COc1ccccc1CC(=O)NC1COc2ncccc21 (racemic) [Example 12, rac-N-(2,3-Dihydro-furo[2,3-b]pyridin-3-yl)-2-(2-methoxy-phenyl)-acetamide]	> 6000
N#Cc1ccc(CC(=O)NC2COc3ncccc32)cc1 (racemic) [Example 13, rac-2-(4-Cyano-phenyl)-N-(2,3-dihydro-furo[2,3-b]pyridin-3-yl)-acetamide]	> 5420
Cc1ccc(CC(=O)NC2COc3ncccc32)cc1 (racemic) [Example 14, rac-N-(2,3-Dihydro-furo[2,3-b]pyridin-3-yl)-2-p-tolyl-acetamide]	> 5430
O=C(Cc1ccc(Cl)cc1)NC1COc2ncccc21 (racemic) [Example 15, rac-2-(4-Chloro-phenyl)-N-(2,3-dihydro-furo[2,3-b]pyridin-3-yl)-acetamide]	1410
O=C(Cc1ccc(C(F)(F)F)cc1)NC1COc2ncccc21 (racemic) [Example 16, rac-N-(2,3-Dihydro-furo[2,3-b]pyridin-3-yl)-2-(4-trifluoromethyl-phenyl)-acetamide]	1170
O=C(Cc1ccc(F)cc1F)NC1COc2ncccc21 (racemic) [Example 17, rac-2-(2,4-Difluoro-phenyl)-N-(2,3-dihydro-furo[2,3-b]pyridin-3-yl)-acetamide]	522
O=C(Cc1ccc(F)cc1C(F)(F)F)NC1COc2ncccc21 (racemic) [Example 18, rac-N-(2,3-Dihydro-furo[2,3-b]pyridin-3-yl)-2-(4-fluoro-2-trifluoromethyl-phenyl)-acetamide]	393
COc1ccc(CC(=O)NC2COc3ncccc32)c(OC)c1 (racemic) [Example 19, rac-N-(2,3-Dihydro-furo[2,3-b]pyridin-3-yl)-2-(2,4-dimethoxy-phenyl)-acetamide]	> 6660
COc1ccc(CC(=O)NC2COc3ncccc32)c(F)c1 (racemic) [Example 20, rac-N-(2,3-Dihydro-furo[2,3-b]pyridin-3-yl)-2-(2-fluoro-4-methoxy-phenyl)-acetamide]	578
O=C(Cc1ccc(Cl)c(Cl)c1)NC1COc2ncccc21 (racemic) [Example 21, rac-2-(3,4-Dichloro-phenyl)-N-(2,3-dihydro-furo[2,3-b]pyridin-3-yl)-acetamide]	473
O=C(Cc1c(F)cc(F)cc1F)NC1COc2ncccc21 (racemic) [Example 22, rac-N-(2,3-Dihydro-furo[2,3-b]pyridin-3-yl)-2-(2,4,6-trifluoro-phenyl)-acetamide]	884
CCc1cc(Cl)cc(Cl)c1CC(=O)NC1COc2ncccc21 (racemic) [Example 32, rac-2-(2,4-Dichloro-6-ethyl-phenyl)-N-(2,3-dihydro-furo[2,3-b]pyridin-3-yl)-acetamide]	23
O=C(Cc1c(Cl)cc(Cl)cc1C(F)(F)F)NC1COc2ncccc21 (racemic) [Example 33, rac-2-(2,4-Dichloro-6-trifluoromethyl-phenyl)-N-(2,3-dihydro-furo[2,3-b]pyridin-3-yl)-acetamide]	242
O=C(Cc1cccc(C(F)(F)F)c1Cl)NC1COc2ncccc21 (racemic) [Example 34, rac-2-(2-Chloro-3-trifluoromethyl-phenyl)-N-(2,3-dihydro-furo[2,3-b]pyridin-3-yl)-acetamide]	7.4
O=C(Cc1ccc(Cl)cc1C(F)(F)F)NC1COc2ncccc21 (racemic) [Example 35, rac-2-(4-Chloro-2-trifluoromethyl-phenyl)-N-(2,3-dihydro-furo[2,3-b]pyridin-3-yl)-acetamide]	193
O=C(Cc1ccc(Oc2ccccc2)cc1)NC1COc2ncccc21 (racemic) [Example 36, rac-N-(2,3-Dihydro-furo[2,3-b]pyridin-3-yl)-2-(4-phenoxy-phenyl)-acetamide]	1480
N#Cc1cc(Cl)cc(Cl)c1CC(=O)NC1COc2ncccc21 (racemic) [Example 37, rac-2-(2,4-Dichloro-6-cyano-phenyl)-N-(2,3-dihydro-furo[2,3-b]pyridin-3-yl)-acetamide]	324
O=C(Cc1c(Cl)cc(Cl)cc1C1CC1)NC1COc2ncccc21 (racemic) [Example 39, rac-2-(2,4-Dichloro-6-cyclopropyl-phenyl)-N-(2,3-dihydro-furo[2,3-b]pyridin-3-yl)-acetamide]	54
Cc1c(Cl)cc(C(F)(F)F)c(CC(=O)NC2COc3ncccc32)c1F (racemic) [Example 40, rac-2-(4-Chloro-2-fluoro-3-methyl-6-trifluoromethyl-phenyl)-N-(2,3-dihydro-furo[2,3-b]pyridin-3-yl)-acetamide]	1580
O=C(Cc1cc(F)c(Cl)cc1Cl)NC1COc2ncccc21 (racemic) [Example 41, rac-2-(2,4-Dichloro-5-fluoro-phenyl)-N-(2,3-dihydro-furo[2,3-b]pyridin-3-yl)-acetamide]	332
